The source of these data is patent US4148785A, “Analgesic polypeptide” (American Home Products Corporation, priority 1978, dated 1979).

One assay has as its system rat. The experiment in a line: rat tail flick test (method of D-Amour and Smith), analgesic activity. It counts as in vivo. From the text:
The representative polypeptide of this invention Tyr--D--Ala--Gly--Phe--D--Val--NH2, gave the following results in the reference standard rat tail flick test: […]
(Thermal pain tests record how soon the animal reacts.)

Another assay deals with opiate receptor. To be noted: brain homogenates; cited from earlier work.
Another assay relates to rats. Conditions: injection in the brain ventricle in rats; cited from earlier work.
For the next assay, the system named is guinea pig ileum. Conditions: cited from earlier work.
A further assay relates to mouse vas deferens. Conditions: cited from earlier work.
The conditions of assay [1]: intracerebroventricular; cited from earlier work.

Where a SMILES comes first, the peptide text is derived from it. [ ]: non-standard residue; d: D form.

As to `CC(C)[C@@H](NC(=O)[C@H](Cc1ccccc1)NC(=O)CNC(=O)[C@@H](C)NC(=O)[C@@H](N)Cc1ccc(O)cc1)C(N)=O` [Tyr--D--Ala--Gly--Phe--D--Val--NH2, L-tyrosyl-D-alanylglycyl-L-phenylalanyl-D-valine amide] (H-Y[dA]GF[dV]-NH2), the “No. showing analgesia/No. tested” value in the assay with rat (intravenous 1.0 milligram/kilogram, 15 minutes after administration) is recorded as 2/6; with rat (intravenous 1.0 milligram/kilogram, 30 minutes after administration), 1/6; in the assay on rat (intravenous 1.0 milligram/kilogram, 60 minutes after administration), 0/6; in the assay on rat (intravenous 2.5 milligram/kilogram, 15 minutes after administration) it was 5/6; with rat (intravenous 2.5 milligram/kilogram, 30 minutes after administration), 3/5; with rat (intravenous 2.5 milligram/kilogram, 60 minutes after administration) it was 3/5. The “No. showing analgesia/No. tested” value is on record as 6/6 with rat (intravenous 5.0 milligram/kilogram, 15 minutes after administration); 5/6 in the assay with rat (intravenous 5.0 milligram/kilogram, 30 minutes after administration); 0/5 with rat (intravenous 5.0 milligram/kilogram, 60 minutes after administration); 1/6 with rat (intravenous .25 milligram/kilogram, 15 minutes after administration); 0/6 with rat (intravenous .25 milligram/kilogram, 30 minutes after administration); 1/6 with rat (intravenous .25 milligram/kilogram, 60 minutes after administration). The “No. showing analgesia/No. tested” value in the assay with rat (intravenous .5 milligram/kilogram, 15 minutes after administration) is on record as 4/6; with rat (intravenous .5 milligram/kilogram, 30 minutes after administration), 4/6; with rat (intravenous .5 milligram/kilogram, 60 minutes after administration), 1/6; with rat (subcutaneous 5.0 milligram/kilogram, 30 minutes after administration), 2/6; with rat (subcutaneous 5.0 milligram/kilogram, 60 minutes after administration), 1/6; in the assay on rat (subcutaneous 5.0 milligram/kilogram, 90 minutes after administration), 0/6. Further, the “No. showing analgesia/No. tested” value in the assay on rat (subcutaneous 5.0 milligram/kilogram, 120 minutes after administration) is given as 0/6; in the assay on rat (subcutaneous 20.0 milligram/kilogram, 30 minutes after administration), 6/6; in the assay with rat (subcutaneous 20.0 milligram/kilogram, 60 minutes after administration) it was 3/6; in the assay with rat (subcutaneous 20.0 milligram/kilogram, 90 minutes after administration), 3/6; in the assay with rat (subcutaneous 20.0 milligram/kilogram, 120 minutes after administration) it was 2/6.

Turning to “H--Tyr--Gly--Gly--Phe--Leu--OH [leucine-enkephalin]”, the “inhibition of stereospecific receptor binding of 3H-naloxone” value in the assay with opiate receptor was “inhibit the sterospecific receptor binding”. Also, the analgesia result in the assay on rats is “profound analgesia that is fully reversible by naloxone”. For the same molecule, the “block of electrically evoked contractions” value in the assay on guinea pig ileum and with mouse vas deferens was “block electrically evoked contractions” in each case.

As for “H--Tyr--Gly--Gly--Phe--Met--OH [methionine-enkephalin]”, in the assay with opiate receptor, the “inhibition of stereospecific receptor binding of 3H-naloxone” value is “inhibit the sterospecific receptor binding”. For the same molecule, in the assay with rats, the analgesia result was “profound analgesia that is fully reversible by naloxone”. The “block of electrically evoked contractions” value with guinea pig ileum and in the assay with mouse vas deferens was “block electrically evoked contractions” each time.

For the molecule Tyr--D--Ala--Gly--Phe--D--Leu, in assay [1], the “activity when administered intracerebroventricularly” value is recorded as “activity”.
